Reference: patent US7345091B2, “Carotenoid ether analogs or derivatives for the inhibition and amelioration of disease” (Cardax Pharmaceuticals, Inc., priority 2002, dated 2008)
Where a name gives a salt, the structure may show the parent alone.

Assay: Liver accumulation of free astaxanthin after single oral dose
Format: in vivo, male C57BL/6 mice
Protocol: Free astaxanthin concentration was also determined, at the same time points as for plasma samples, in liver. Livers were removed from each animal in the pharmacokinetic study after sacrifice, and snap frozen in liquid nitrogen. Liver tissue was prepared for HPLC analysis as described (Jewell, 1999). Therefore, simultaneous examination of liver accumulation of free astaxanthin was performed at the same time points as the plasma analyses. Up to 300 mg of liver from each animal was snap frozen in liquid nitrogen. Tissue homogenization and extraction were performed with a mixture of chloroform/methanol/water, according to the methods of Jewell (1999). Non-esterified, free astaxanthin accumulation in liver was then evaluated by HPLC as described above for plasma samples.

Oral clearance (Liver, free astaxanthin, single 500 mg/kg oral dose): 15.856 L/h
liver vs plasma levels of free astaxanthin at each sampling interval (single 500 mg/kg oral gavage in emulsion): equal or greater to that in plasma
Compound: CC1=C(/C=C/C(C)=C/C=C/C(C)=C/C=C/C=C(C)/C=C/C=C(C)/C=C/C2=C(C)C(=O)C(OC(=O)CCC(=O)O)CC2(C)C)C(C)(C)CC(OC(=O)CCC(=O)O)C1=O (racemic) [XVI, Disodium Salt of the Disuccinic Acid Ester of Astaxanthin]
